{"source": "patent US20100323950A1", "about": "“USE OF BETA-MELANOTROPIN AS A THERAPEUTIC AGENT, EG FOR THE TREATMENT OF AIDS OR ALZHEIMER” (priority 2007, published 2010)", "test_system": "drug-resistant Mycobacterium tuberculosis", "details": "Mycobacterium tuberculosis resistant to PAS, streptomycin, INH; peptide 10 micrograms per ml; seven days", "data": [{"smiles": "CSCC[C@H](NC(=O)[C@H](CCCNC(=N)N)NC(=O)[C@H](Cc1ccc(O)cc1)NC(=O)[C@@H]1CCCN1C(=O)CNC(=O)[C@H](CCC(=O)O)NC(=O)[C@H](CC(=O)O)NC(=O)[C@H](CCCCN)NC(=O)[C@H](CCCCN)NC(=O)[C@H](CCC(=O)O)NC(=O)[C@H](C)N)C(=O)N[C@@H](CCC(=O)O)C(=O)N[C@@H](Cc1c[nH]cn1)C(=O)N[C@@H](Cc1ccccc1)C(=O)N[C@@H](CCCNC(=N)N)C(=O)N[C@@H](Cc1c[nH]c2ccccc12)C(=O)NCC(=O)N[C@@H](CO)C(=O)N1CCC[C@H]1C(=O)N1CCC[C@H]1C(=O)N[C@@H](CCCCN)C(=O)N[C@@H](CC(=O)O)C(=O)O", "note": "[Beta MSH]", "values": [{"measurement": "% inhibition", "value": 0.0, "unit": "%"}]}]}
